The pIC50 is −log10 of the IC50, conventionally taken in molar units.

pIC50: −log10 of the molar value.

This is an account of results in patent publication US6034246A, “2-arylbenzazole compounds” (Cancer Research Campaign Technology Limited, priority 1995, dated 2000).

In test [1] the test system is human breast cancer cell lines. The experiment in a line: in vitro inhibition of human breast cancer cell lines. The test is classed as cell-based. Conditions: words, Table 4. The source says: (§1) Tables 1 to 4 at the end of the present description show in vitro test results obtained in various sets of experiments for the cytotoxic activity of several of the benzazole compounds concerned, including also for reference results for the compound CJM 126 and comparative results for compound DF129, when tested against a range of tumor cell lines which includes ovarian, lung and certain colon and renal cancer cells from the National Cancer Institute (USA) collection. As usual the results are expressed in terms of IS50 values (concentration or dosage required to reduce cell growth or proliferation by 50%) calculated from dose-effect curves plotted for cultures of the cells in question.
(§2) In carrying out the in vitro studies, the cytotoxicity assays may be carried out by a method corresponding substantially to the following example:
(§3) Cells were maintained in a continuous logarithmic culture in Dublecco's medium supplemented with 10% fetal calf serum and penicillin (100 IU/ml) and streptomycin ([…]). The cells were mildly trypsinized for passage and for use in assays. On day zero, 100 μl of trypsinized tumor cells (1×10^4 /ml) were plated in the wells of 96-well flat-bottom microtiter plates. The plates were incubated for 2 days at 37° C. and 5% CO2 in air to allow the cells to adhere and resume exponential growth prior to the addition of drugs.
(§4) On day two 50 μl of the highest drug concentration was added to the wells of column 12 and from there serially diluted 3-fold to column 1 by serial transfer of 50 μl using an 8-channel micropipette. The final volume of column 1 was adjusted to 100 μl. No additions were made to the wells of rows A and B, which served as controls. The plates were further incubated for 5 days at 37° C. and 5% CO2 in air. Each compound was tested in duplicate.
(§5) On day 7 the test was terminated by the addition of 100 μl saline containing 0.002% w/v propidium iodide (Sigma), 0.3% drawing ink (Staedtler "Marsmatic 745"--Trade Mark) and 0.5% Triton X-100. The plates were kept at 4° C. overnight before reading on an inverted microscope equipped with an automated scanning stage. Fluorescence intensity was measured in arbitrary units by a photomultiplier. An HP-87 computer controlled the movement of the stage and also collected and processed the data from the multiplier.
(§6) For each compound tested a dose-response curve was obtained and the IC50 value (the drug concentration at 50% inhibition of cell growth) was calculated.

Another test deals with H69/P. The test is described as follows: in vitro inhibition of growth of human lung cancer cell line H69/P (Table 1). The format is cell-based.
Description: as §1, §2, §3, §4, §5, §6

The test system of a further test is NCI-H226. The experiment in a line: in vitro inhibition of growth of human lung cancer cell line NCI-H226 (Table 1). The test is classed as cell-based.
Description: as §1
In carrying out the in vitro studies, the cytotoxicity assays may be carried out by a method corresponding substantially to the following example: […]
On day 7 the test was terminated by the addition of 100 μl saline containing 0.002% w/v propidium iodide (Sigma), 0.3% drawing ink (Staedtler "Marsmatic 745"--Trade Mark) and 0.5% Triton X-100. The plates were kept at 4° C. overnight before reading on an inverted microscope equipped with an automated scanning stage. Fluorescence intensity was measured in arbitrary units by a photomultiplier. […]

Another test concerns A2780-cisR. The experiment in a line: in vitro activity against human ovarian cell line A2780-cisR (Table 2). The test is classed as cell-based. Conditions: for pIC50: Homo sapiens, A2780cisR, A2780-cisR (platinum-resistant); for activity against A2780-cisR compared to the parental line A2780: words, Table 2.
Description: (§7) As usual the results are expressed in terms of IS50 values (concentration or dosage required to reduce cell growth or proliferation by 50%) calculated from dose-effect curves plotted for cultures of the cells in question.
as §2, §3, §4
(§8) The plates were kept at 4° C. overnight before reading on an inverted microscope equipped with an automated scanning stage. Fluorescence intensity was measured in arbitrary units by a photomultiplier. An HP-87 computer controlled the movement of the stage and also collected and processed the data from the multiplier.

Another test relates to MOR/P. The test is described as follows: in vitro inhibition of growth of human lung cancer cell line MOR/P (Table 1). The test is classed as cell-based. Conditions: MOR/P (parental line).
Description: as §1, §2, §3, §4, §5, §6

Another test relates to breast carcinoma BO. The test is described as follows: in vivo antitumor test, human breast carcinoma BO xenotransplanted in nude mice. Conditions: BO. As for the experimental part: (§9) In one typical set of experiments, four human breast carcinomas xenotransplanted into female Ncr: nu/nu (Taconic, Germantown, U.S.A.) or male Bom: NMRI-nu/nu mice (Bomholtgaard, Ry, Denmark) were used for the evaluation of antitumor activity. Mice weighing 20-25 g at the start of experiments were held under sterile conditions at 24-26° C., 50% relative humidity and 12 hours light-dark rhythm in laminar flow shelves. The animals received autoclaved food and bedding; the drinking water was filtered and acidified (pH4.0).
The following breast carcinoma cell lines were used: BO; MCF-7 (NCI, U.S.A.); MT-1 and MT-3. The tumors BO and MCF-7 are ER^+ models: the carcinomas MT-1 and MT-3 are ER^- ones. Tumors were transplanted subcutaneously (s.c.) as pieces (2×2 mm) into the left flank of 5-8 nude mice/experimental group. Drug treatment was initiated when the tumors reached a diameter of 4-5 mm. Compounds were solubized with Tween 80 (maximum 10% of final volume) and suspended in saline. Suspensions were preparted freshly for each drug administration and injected in a volume of 0.2 mL/20 g body weight employing a once-weekly schedule (x3). Tumor size was measured twice weekly with a caliper. Median tumor volume/group was related to the first treatment day and expressed as Relative Tumor Volume (RTV). For the estimation of toxicity, body weight was determined twice weekly and the mean percentage body weight change (BCC) was calculated. In one experiment blood was obtained from the retroorbital venous plexus of mice and blood cells were determined with a Coulter counter (Model T41). […]

Another test concerns MCF-7. The test is described as follows: in vivo antitumor test, human breast carcinoma MCF-7 xenotransplanted in nude mice. Conditions: for evaluation / RTV, relative tumor volume (T/C %): qd 12, 19, 26; for RTV, relative tumor volume (T/C %): marked * significant versus control. As for the experimental part: as §9
The following breast carcinoma cell lines were used: BO; MCF-7 (NCI, U.S.A.); MT-1 and MT-3. The tumors BO and MCF-7 are ER^+ models: the carcinomas MT-1 and MT-3 are ER^- ones. Tumors were transplanted subcutaneously (s.c.) as pieces (2×2 mm) into the left flank of 5-8 nude mice/experimental group. Drug treatment was initiated when the tumors reached a diameter of 4-5 mm. Compounds were solubized with Tween 80 (maximum 10% of final volume) and suspended in saline. Suspensions were preparted freshly for each drug administration and injected in a volume of 0.2 mL/20 g body weight employing a once-weekly schedule (x3). Tumor size was measured twice weekly with a caliper. Median tumor volume/group was related to the first treatment day and expressed as Relative Tumor Volume (RTV). For the estimation of toxicity, body weight was determined twice weekly and the mean percentage body weight change (BCC) was calculated. In one experiment blood was obtained from the retroorbital venous plexus of mice and blood cells were determined with a Coulter counter (Model T41).
Some of the in vivo test results are shown in Tables 5 and 6 at the end of the present description, and in FIG. 1 of the accompanying drawing which illustrates the results for measurements of in vivo activity of 2-(4'-amino-3'-methylphenyl) benzothiazole (DF203) against MCF7 in nude mice administered on days 12, 19 and 26.

The test system of the next test is MDA 468. The test is described as follows: in vitro inhibitory activity against human breast tumour cell line MDA 468 (Table 4). The format is cell-based. The following applies: initial seeding density 2.5 × 10^2 cells/well.
Description: as §1, §2, §3, §4, §5, §6
*Initial seeding density 2.5 × 10^2 cells/well

In a further test the test system is L23/R. The experiment in a line: in vitro inhibition of growth of human lung cancer cell line L23/R (Table 1). The format is cell-based.
Description: as §1, §2, §3, §4, §5, §6

The test system of another test is MOR/CPR. The experiment in a line: in vitro inhibition of growth of human lung cancer cell line MOR/CPR (Table 1). Conditions: for pIC50: Homo sapiens, MOR/CPR (cisplatin resistant line); for activity against MOR/CPR relative to MOR/P and MOR/R: words, Table 1. The test is classed as cell-based.
Description: as §1, §2, §3, §4, §5, §6

A further test has as its system L23/P. The experiment in a line: in vitro inhibition of growth of human lung cancer cell line L23/P (Table 1). The format is cell-based.
Description: as §1, §2, §3, §4, §5, §6

Another test deals with CH1. The experiment in a line: in vitro activity against human ovarian cell line CH1 (Table 2). The test is classed as cell-based. Conditions: Homo sapiens.
Description: as §7, §2, §3, §4, §8

Where [2] appears, read: MCF-7, optimum dose 200 mg/Kg/inj i.p.
Where [3] appears, read: MCF-7, optimum dose 12.5 mg/Kg/inj i.p.

Take `Nc1ccc(-c2nc3ccccc3s2)cc1I` [DF129, 2-(4'-amino-3'-iodophenyl)benzothiazole]: the “potency against breast cancer cells relative to CJM 126” value in [1] is “more potent than even the compound CJM 126”. For the same molecule, the pIC50 was less than 5.00 in the test on H69/P; 6.52 in the test on NCI-H226; 4.39 in the test with A2780-cisR; 6.52 in the test with MOR/P; more than 9.00 with MDA 468; less than 5.00 in the test on L23/R. Moreover, the pIC50 is 7.60 in the test with MOR/CPR, 7.00 in the test with L23/P and 4.52 in the test with CH1. Moreover, in the test with A2780-cisR, the “activity against A2780-cisR compared to the parental line A2780” value is on record as “increased activity”. In addition, the “RTV, relative tumor volume (T/C %)” value is on record as 97% in the test with breast carcinoma BO (optimum dose 200 mg/Kg/inj i.p., qd 27, 34, 41 (Table 6), not marked significant) and 68% in the test on MCF-7 (setting [2]). Also, the evaluation entry in the test on MCF-7 (setting [2]) is “(+) (T/C % ≥ 51%)”. In addition, the “activity against MOR/CPR relative to MOR/P and MOR/R” value with MOR/CPR is recorded as “more active against the MOR/CPR line than against the two other lines”.
Turning to `Cc1cc(-c2nc3ccccc3s2)ccc1N` [DF203, 2-(4'-amino-3'-methylphenyl)benzothiazole], the “potency against breast cancer cells relative to CJM 126” value in [1] was “more potent than even the compound CJM 126”. Besides, the negative logarithm of the IC50 (pIC50) in the test on H69/P was less than 5.00; with NCI-H226 it was 6.52; in the test on A2780-cisR, 4.74; with MOR/P it was 7.00; with MDA 468 it was more than 9.00; in the test on L23/R, less than 5.00. For the same molecule, the pIC50 is 7.40 with MOR/CPR, 5.00 with L23/P and 4.72 with CH1. In the test with A2780-cisR, the “activity against A2780-cisR compared to the parental line A2780” value is “increased activity”. The evaluation result with breast carcinoma BO (optimum dose 25 mg/Kg/inj i.p., qd 27, 34, 41) is listed as “++ (T/C = 21-35%)”; with MCF-7 (setting [3]), “++ (T/C = 21-35%)”. The “RTV, relative tumor volume (T/C %)” value with breast carcinoma BO (optimum dose 25 mg/Kg/inj i.p., qd 27, 34, 41, marked * significant versus control) stood at 35%; in the test with MCF-7 (setting [3]), 31%. Also, the “tumor status of surviving animal” value with MCF-7 (top dose 25 mg/Kg) is recorded as “tumor free”. Further, in the test with MOR/CPR, the “activity against MOR/CPR relative to MOR/P and MOR/R” value was “more active against the MOR/CPR line than against the two other lines”.
